Two compounds from patent EP2149557A1, “Styrylquinolines, their process of preparation and their therapeutic uses” (BioAlliance Pharma, priority 2008, dated 2010) can be followed below.

The test system of data set [1] is wild type HIV-1 virus (NL 4.3 strains). Nature of the data set: Antiviral activity assay on Hela P4 cells (beta-galactosidase, CPRG). The format is cell-based. Particulars: Human immunodeficiency virus 1; HelaP4 cells, 48 hours incubation. On the procedure: The antiviral activity is determined by infecting HelaP4 cells with a wild type HIV-1 virus (NL 4.3 strains at 3 ng) on cells in presence or absence of drugs. A serial dilution of drugs is done to evaluate the EC50. The effective concentration is the concentration of product at which virus replication is inhibited by 50 percent. After 48 hours incubation, the quantification is done by the evaluation of β-Galactosidase produced by the infected Hela P4 cells. The viral activity is evaluated by colorimetric assay, CPRG, followed by plate reading at 570 nm with a reference of 690 nm. The CPRG test is a colorimetric assay which allows to quantity the β-galactosidase produced by HIV-1 infected indicator cells (the β-Gal gene being under the control of the HIV-1 LTR).

Data set [2] addresses T1, HBX2 HIV integrase (Human immunodeficiency virus type 1 group M subtype B, UniProt P04585). Nature of the data set: 3' LTR processing assay. The class given is biochemical. Particulars: 3' processing, IN 200nM, substrate DNA 12.5 nM, up to 2 h at 37°C.
Method: For processing, strand transfer, 100 pmol of U5B, U5B-2, respectively, were radiolabeled using T4 polynucleotide kinase and 50 µCi of [γ-32P]ATP (3000 Ci/mmol). The T4 kinase was heat inactivated, and unincorporated nucleotides were removed using a Sephadex G-10 column (GE HealthCare). NaCl was added to a final concentration of 0.1 M, and complementary unlabeled strand U5A was added to either U5B or U5B-2. The mixture was heated to 90°C for 3 min, and the DNA was annealed by slow cooling.
Processing reaction was performed using U5A-U5B, in buffer containing 20 mM Tris (pH 7.2), 50 mM NaCl, 10 mM DTT, and 10mM MgCl2. […] The reactions were stopped by phenol/chloroform extraction, and DNA products were precipitated with ethanol. The products were separated in TE containing 7 M urea and electrophoresed on an 18% denaturing acrylamide/urea gel. Gels were analyzed using a STORM Molecular Dynamics phosphorimager and quantified with Image Quant™ 4.1 software.
Data set [3] deals with T1, HBX2 HIV integrase. Nature of the data set: Strand transfer assay. The format is biochemical. Particulars: IN 200nM, substrate DNA 12.5 nM, up to 2 h at 37°C, read-out: Transfert IC50.
Method: The pET-15b-IN plasmid contains the cDNA encoding the HBX2 HIV integrase. His-tagged integrase protein was overexpressed in Escherichia coli BL21 (DE3) and purified under native conditions. Briefly, at an OD of 0.8, fusion protein expression was induced in bacterial cultures by the addition of IPTG (1 mM). Cultures were incubated for 3 h at 37°C, after which cells were centrifuged. The cell pellet was resuspended in ice-cold buffer A [20 mM Tris-HCl (pH 8), 1 M NaCl, 4 mM β-mercaptoethanol, and 5 mM imidazole], treated with lysozyme for 1 h on ice, and sonicated. After centrifugation (30 min at 10 000 rpm), the supernatant was filtered (0.45 µm) and incubated for at least 2 h with Ni-NTA agarose beads (Pharmacia). The beads were washed twice with 10 volumes of buffer A, 10 volumes of buffer A with 50 mM imidazole, and 10 volumes of buffer A with 100 mM imidazole. His-tagged integrase was then eluted with buffer A supplemented with 50 µM ZnS04 and 1 M imidazole. […]
Processing, strand transfer reactions were performed using U5A-U5B-2, in buffer containing 20 mM Tris (pH 7.2), 50 mM NaCl, 10 mM DTT, 10mM MgCl2. […] Gels were analyzed using a STORM Molecular Dynamics phosphorimager and quantified with Image Quant™ 4.1 software.
Data set [4] can be described thus: Viability assay (cytotoxicity, MTT). Particulars: human, HeLa-P4 cells, read-out: Cytoto -xicity IC50. The class given is cell-based. As to the method:
(§1) The cytotoxicity of compounds was evaluated using un-infected and infected HeLa-P4 cell and CEM leukemia cells. CEM cell were obtained from the […] (Rockville, MD). A serial dilution of drugs is done to evaluate the cytotoxicity concentration and is identified by CC50 (concentration of drug which induces 50% of cytotoxicity) The HeLa-P4 was cultured in the presence or absence of compounds for 2 days. After this time period, cells were cultivated with MTT for 3 hours, further the medium is removed. And the lysis buffer is incubated for 1 hour, followed by plate reading at 540 nm in a microplate reader.

In data set [5] the test system is HeLa-P4 cell. Description: Viability assay (cytotoxicity, MTT). The class given is cell-based. To be noted: 2 days, comparative compound table, read-out: Cytotoxicity IC50. On the procedure: as §1

Structures are written as SMILES.

Turning to `CC(=O)c1ccc2ccc(/C=C/c3cc(O)c(O)cc3O)nc2c1O` [SQE 95, (E)-1-(8-hydroxy-2-(2,4,5-trihydroxystyryl)quinolin-7-yl)ethanone], the IC50 (commonly the point on the concentration scale where inhibition reaches its midpoint) in data set [1] is 13.8 µM; in data set [2], 0.199 µM; in data set [3], 0.199 µM. In data set [4], the IC50 at 2 days was 12.5 µM.

Regarding `COc1cc(/C=C/c2ccc3ccc(C(=O)O)c(O)c3n2)cc(O)c1O` [FZ41, reference compound], the CC50 in data set [5] was more than 100 µM.
